This note sets out measurements from PMC10244169, “Psychedelics promote plasticity by directly binding to BDNF receptor TrkB” (Nature Neuroscience, 2023).

In test [1] the target is T1, TrkB S440A (Rattus norvegicus, UniProt Q63604, S440A).
T1 construct: expressed in transfected cells; host or cells: HEK293T
The test can be described thus: ^3H-LSD saturation binding, TrkB mutant.

Test [2] concerns TrkB pY816. The test can be described thus: pY816 in PFC and hippocampus after single LSD injection (ELISA, immunoblot). It counts as in vivo. To be noted: mouse brain samples, single administration. As to the method: The phosphorylation of TrkB (pY816) and interaction with PLCγ1 were assessed by enzyme-linked immunosorbent assay (ELISA) as previously described[11],[80],[81] with minor modifications. Briefly, white 96-well plates (PerkinElmer, OptiPlate 96F-HB) were precoated with goat anti-TrkB (R&D systems, AF1494; 1:500, overnight, 4 °C) antibody in carbonate buffer (pH 9.8) and blocked with 3% BSA in PBS with 0.1% Tween-20 (PBS-T) for 2 h at room temperature. […] Samples were incubated overnight at 4 °C, and 24 h later plates were washed with PBS-T and incubated with either rabbit anti-phospho-TrkB(Tyr816) (Cell Signaling Technology, 4168S; 1:2,000), rabbit anti-PLCγ1 (Cell Signaling Technologies, 5690S; 1:2,000) or rabbit anti-Trk (Cell Signaling Technologies, 92991; 1:2,000) antibodies overnight at 4 °C. After washing with PBS-T, plates were incubated with HRP-conjugated goat anti-rabbit (Bio-Rad, 170–5046; 1:5,000, 1 h, room temperature) antibody, followed by more washing with PBS-T. Finally, the chemiluminescent signal was read after brief incubation with Pierce ECL substrate (Thermo Fisher Scientific, 32106). Luminescence from blank wells that contained all reagents but the sample lysates was used to determine background signal. […]
On the technique in general: In an ELISA, binding on a coated surface is turned into a signal by an enzyme label.

Test [3] deals with TrkB cell surface retention. The test can be described thus: Cell surface retention of TrkB in cortical neurons. The format is cell-based, rat. As to the method:
The cell surface retention of TrkB was measured as previously described[11],[82]. […] For antagonist experiments, cultures were pretreated with M100907 (100 nM) for 10 min and remained present for the rest of the experiment. After washing with PBS and incubating for 1 h with blocking buffer (5% nonfat dry milk and 5% BSA) at room temperature, plates were incubated with goat anti-TrkB antibody (R&D Systems, AF1494; 1:1,000, overnight, 4 °C). After further PBS washes, plates were incubated with HRP-conjugated […] antibody (Bio-Rad, 170–5046; 1:5,000, 1 h, room temperature). Finally, wells were washed with PBS and the chemiluminescent signal was read after brief incubation with Pierce ECL substrate (Thermo Fisher Scientific, 32106).

Test [4] has as its system pmTOR. The test can be described thus: Western blot of mTOR phosphorylation in cortical neurons. It counts as cell-based, rat. Conditions: LSD 100 nM. As to the method:
(§1) In a separate set of experiments to examine the effect of 5-HT2A activation, M100907 (100 nM) was administered as a 10 min pretreatment and remained in the medium for the rest of the experiment. Next, cells were lysed and centrifuged. […] The co-immunoprecipitation was carried out as previously described[11],[23],[24] with minor modifications. Briefly, Magnetic Dynabeads Protein G (Invitrogen, 10004D) were coated with anti-TrkB antibody (R&D Systems, AF1494) at 200 ng of antibody per 1 µl of beads in rotation (2 h, 4 °C). Finally, lysates were mixed with the coated beads (100 µg of total protein per 15 µl of beads) and incubated in rotation (overnight, 4 °C).
(§2) Proteins were separated according to their molecular weight by SDS–PAGE and transferred to a polyvinylidene fluoride membrane. Membranes were incubated with the following primary antibodies (all 1:1,000 in 3% BSA in TBS-T, overnight, 4 °C): anti-TrkB (R&D Systems, AF1494), anti-β-actin (Sigma-Aldrich, A1978), anti-phospho-mTOR (Cell Signaling Technology, 5536S), anti-phospho-p44/42 MAPK (Erk1/2) (Cell Signaling Technology, 9106S), anti-mTOR (Cell Signaling Technology, 2972S) and anti-p44/42 MAPK (Erk1/2) (Cell Signaling Technology, 9102S). […] Protein bands were visualized using enhanced chemiluminescent substrate (Thermo Scientific, 32132, ECL Plus) and imaged with a charge-coupled device camera (G:BOX, Syngene).
On the technique in general: A western blot detects proteins with antibodies after separation by electrophoresis.

Test [5] relates to TrkB. The test can be described thus: Western blot of TrkB protein expression in N2a cells. It counts as cell-based. Conditions: WT and Y433F^+/−. As to the method: as §1, §2
The subject of test [6] is primary visual cortex. Description: Ocular dominance plasticity after monocular deprivation. It counts as in vivo, mouse. To be noted: ext fig 7b.
Method: Female and male mice were 17 weeks old at the time of monocular deprivation, since the physiological critical period in the binocular region of the visual cortex is closed by then[85]. […] Briefly, mice were injected with an anesthetic mixture containing 0.05 mg kg^−1 fentanyl (Hameln), 5 mg kg^−1 midazolam (Hameln) and 0.5 mg kg^−1 medetomidine (Orion Pharma) diluted in saline. Eyes were protected from drying with eye-protective gel (Alcon), and the head was shaved and fixed in a stereotaxic frame with a heating pad maintained at 37 °C. A mixture of lidocaine and adrenaline (Orion Pharma) was applied locally on the head, and the scalp above the visual cortex was cut. The periosteum was removed gently, and the skull was rapidly cleaned from fat with acetone. The surface of the skull was covered with a thin layer of cyanoacrylate glue (Henkel, Loctite 401), followed by two layers of acryl, obtained by mixing colorless acrylic powder (EUBECOS) with liquid methacrylate (Densply). […] The signal was recorded from one eye at a time, with the other eye covered by a patch. […] The OD score as (C − I)/(C + I) was calculated, and the ocular dominance index (ODI) was determined as the mean of the OD score for all responsive pixels, as described by Cang et al.[89].
Test [7] relates to Ntrk2 mRNA. The test can be described thus: RT–qPCR of Ntrk2 mRNA in cortical neurons. Conditions: after LSD treatment. (In general: Real-time PCR tracks product formation cycle by cycle.)

T1 sequence (Q63604 32-821 S440A): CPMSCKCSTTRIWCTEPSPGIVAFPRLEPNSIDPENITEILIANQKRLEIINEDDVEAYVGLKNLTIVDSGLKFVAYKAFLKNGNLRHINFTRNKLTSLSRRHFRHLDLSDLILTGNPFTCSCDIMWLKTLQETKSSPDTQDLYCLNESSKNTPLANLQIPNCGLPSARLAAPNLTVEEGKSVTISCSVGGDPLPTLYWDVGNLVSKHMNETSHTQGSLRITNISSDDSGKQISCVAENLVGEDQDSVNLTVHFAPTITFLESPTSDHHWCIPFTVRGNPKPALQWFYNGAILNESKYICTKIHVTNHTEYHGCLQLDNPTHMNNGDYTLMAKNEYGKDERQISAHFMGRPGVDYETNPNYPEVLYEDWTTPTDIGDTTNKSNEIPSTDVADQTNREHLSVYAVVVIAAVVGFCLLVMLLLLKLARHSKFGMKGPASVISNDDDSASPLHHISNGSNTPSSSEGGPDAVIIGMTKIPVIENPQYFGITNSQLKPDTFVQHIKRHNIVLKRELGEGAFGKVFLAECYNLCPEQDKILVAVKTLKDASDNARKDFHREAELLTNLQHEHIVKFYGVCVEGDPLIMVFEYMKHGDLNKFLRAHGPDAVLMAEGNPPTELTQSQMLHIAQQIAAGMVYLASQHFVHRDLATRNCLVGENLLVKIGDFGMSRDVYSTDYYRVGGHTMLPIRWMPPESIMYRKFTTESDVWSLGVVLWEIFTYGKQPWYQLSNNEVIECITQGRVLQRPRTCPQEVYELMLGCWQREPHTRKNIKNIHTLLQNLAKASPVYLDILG

What is called Kd is the free concentration of one partner at which half of the binding sites on the other are occupied at equilibrium, for simple one-to-one binding. High values mean weaker binding, low ones tighter binding. `CCN(CC)C(=O)C1C=C2c3cccc4[nH]cc(c34)CC2N(C)C1` (centres unmarked) [LSD, lysergic acid diethylamide] showed a Kd in test [1] of 714 pM. Besides, in test [1] (S440A), the “Bmax (best-fit, 1a)” value was 114.7 and the “h (best-fit, 1a)” value stood at 1.945. Besides, in test [1] (S440A mutation), the LSD binding result was “did not influence LSD binding”. For the same molecule, the “TrkB phosphorylation (pY816)” value in test [2] is “increases phosphorylation of TrkB tyrosine 816 (pY816)”. Moreover, in test [3], the “TrkB cell surface retention” value is “increases TrkB cell surface retention independently of 5-HT2A activation”. In addition, in test [4], the “phosphorylation of mTOR” value was “promotes phosphorylation of mTOR for at least 1 h”. The “total TrkB expression” value in test [5] is reported as “No differences in total TrkB expression”. Moreover, the “Mean ± SEM of column B (IOS II)” value in test [6] (IOS II (second imaging session), n=10 mice) is 0.0300 ± 0.02329, n=10. Besides, the “Difference between means (IOS II vs. IOS I)” value in test [6] (column B IOS II vs. column A IOS I, unpaired t test) is reported as -0.1640 ± 0.02794. Further, the “Ntrk2 mRNA levels” value in test [7] was “without any changes in Ntrk2 mRNA levels”.
